Experimental data from ChEMBL document CHEMBL5537149, “Design, synthesis, and lead optimization of piperazinyl-pyrimidine analogues as potent small molecules targeting the viral capping machinery of Chikungunya virus” (Eur J Med Chem, 2024).
In brackets after ≈: the same amount, converted by molar mass. Activity calls are given as the source filed them. No cut-off for these calls is given here.

Assays:
Caco-2 [1] = test: Cytotoxicity against human Caco-2 cells incubated for 24 to 72 hrs by MTT assay; type: toxicity, cell-based; details: time 24-72 hrs
Chikungunya virus [2] = test: Antiviral activity against Chikungunya virus infected in African green monkey Vero cells assessed as reduction in viral induced cell death incubated for 5 days by MTS reagent based absorbance method; type: functional, organism-based; details: 120 h
[3] = Cytotoxicity against African green monkey Vero cells assessed as reduction in overall metabolic activity incubated for 5 days by MTS reagent based absorbance method; type: toxicity, cell-based; details: chlorocebus sabaeus, time 5 day
[4] = Selectivity index, ratio of CC50 for cytotoxicity against African green monkey Vero cells to EC50 for antiviral activity against Chikungunya virus infected in African green monkey Vero cells assessed as reduction in viral induced cell death; type: toxicity, cell-based; details: read-out: Ratio CC50/EC50
[5] = Metabolic stability in human liver microsomes assessed as half-life preincubated for 5 mins followed by NADPH addition and measured upto 60 mins by HPLC-MS/MS analysis; type: ADME, Microsome; details: time < 65 min
[6] = Aqueous solubility of compound at pH 7.4 by HPLC analysis; type: physicochemical
Chikungunya virus [7] = test: Antiviral activity against Chikungunya virus 899 infected in African green monkey Vero cells assessed as reduction in viral RNA replication preincubated for 2 hrs with subsequent viral infected followed by media replacement with compound and measured after 48 hrs by qRT-PCR analysis; type: functional, organism-based; details: dose 0.25-60 µM, time 50.0 hrs
Chikungunya virus [8] = test: (§1) Antiviral activity against Chikungunya virus 899 infected in African green monkey Vero cells assessed as log10 reduction in intracellular viral level at 2.22 uM preincubated for 2 hrs with subsequent viral infected followed by media replacement with compound and measured after 48 hrs by qRT-PCR analysis; type: functional; details: time 50 hrs
Chikungunya virus [9] = test: Fold resistance , ratio of EC50 for antiviral activity against CHVB-resistant Chikungunya virus infected in African green monkey Vero cells to EC50 for antiviral activity against wildtype Chikungunya virus 899 infected in African green monkey Vero cells; type: functional
Caco-2 [10] = test: Induction of apoptosis in human Caco-2 cells assessed as increase in caspase-3 expression at 6.25 to 100 uM incubated for 72 hrs by Western blot analysis; type: toxicity, cell-based; details: caco-2, 72 h, dose 6.25-100 µM
Caco-2 [11] = test: Induction of apoptosis in human Caco-2 cells assessed as increase in PARP expression at 6.25 to 100 uM incubated for 72 hrs by Western blot analysis; type: toxicity, cell-based; details: caco-2, 72 h, dose 6.25-100 µM
Chikungunya virus [12] = test: as §1, with “60” for “2.22”; type: functional; details: time 50 hrs
Semliki Forest virus = test: Antiviral activity against Semliki forest virus infected in African green monkey Vero cells assessed as reduction in virus induced cell death; type: functional, organism-based
Sindbis virus = test: Antiviral activity against Sindbis virus HRsp infected in African green monkey Vero cells assessed as reduction in virus induced cell death; type: functional, organism-based
Enterovirus = test: Antiviral activity against Human enterovirus 71 infected in African green monkey Vero cells assessed as reduction in virus induced cell death; type: functional, organism-based
Zika virus = test: Antiviral activity against Zika virus infected in African green monkey Vero cells assessed as reduction in virus induced cell death; type: functional, organism-based

Row | Compound | Activity (Caco-2 [1]) | EC50 (Chikungunya virus [2]) [µM] | CC50 at 120 h [3] [µM] | selectivity ratio [4] | half-life [5] [min] | solubility [6] [µM] | Activity (Chikungunya virus [7]) | log(activity) (Chikungunya virus [8]) | Ratio EC50 (Chikungunya virus [9]) | Activity (Caco-2 [10]) | Activity (Caco-2 [11]) | log(activity) (Chikungunya virus [12]) | Activity (Semliki Forest virus) | Activity (Sindbis virus) | Activity (Enterovirus) | Activity (Zika virus)
1 | CCNc1nc(C)cc(N2CCN(C(=O)c3cccc([N+](=O)[O-])c3)CC2)n1 | Non-Toxic | 0.7 | > 100 | > 143 | > 60 | > 120 | Dose-Dependent Effect | ~4.5 | 13.3 | Non-Toxic | Non-Toxic | – | – | – | – | –
2 | CCNc1nc(C)cc(N2CCN(C(=O)c3cccc(Br)c3)CC2)n1 | Non-Toxic | 0.94 | > 100 | > 107 | > 60 | > 120 | – | – | – | Non-Toxic | Non-Toxic | – | – | – | – | –
3 | CCNc1nc(C)cc(N2CCN(C(=O)c3cccc(I)c3)CC2)n1 | – | 1 | > 100 | > 98 | 42 | > 120 | – | – | – | – | – | – | – | – | – | –
4 | CCNc1nc(C)cc(NC2CCN(C(=O)c3cc(Cl)cc(Cl)c3)CC2)n1 | – | 14 | 47 | 3.4 | > 60 | 101 (≈ 41.2 µg/mL) | – | – | – | – | – | – | – | – | – | –
5 | CCNc1nc(C)cc(N2CCN(C(=O)c3ccc(Br)cc3)CC2)n1 | Non-Toxic | 0.6 | > 96 | > 159 | > 60 | > 120 | Dose-Dependent Effect | ~4.5 | 8.9 | Non-Toxic | Non-Toxic | >5 | – | – | – | –
6 | CCNc1ccnc(N2CCN(S(=O)(=O)c3ccc(Cl)cc3)CC2)n1 | – | 10 | 28 | 2.7 | 19 | 94 (≈ 35.9 µg/mL) | – | – | – | – | – | – | – | – | – | –
7 | CCNc1nc(C)cc(N2CCN(Cc3ccc(F)cc3)CC2)n1 | – | 22 | 46 | 2.1 | > 60 | 106 (≈ 34.9 µg/mL) | – | – | – | – | – | – | – | – | – | –
8 | CCNc1cc(C)nc(N2CCN(C(=O)c3cccc(Br)c3)CC2)n1 | – | 5.1 | > 100 | > 20 | 9.5 | > 120 | – | – | – | – | – | – | – | – | – | –
9 | CCNc1cc(C)nc(N2CCN(S(=O)(=O)c3ccc4ccccc4c3)CC2)n1 | – | 10 | 17 | 1.7 | 20 | 90 (≈ 37 µg/mL) | – | – | – | – | – | – | – | – | – | –
10 | Cc1cc(N2CCN(S(=O)(=O)c3ccc(Cl)cc3)CC2)nc(NC(C)C)n1 | – | 3.8 | 19 | 4.9 | 54 | 76 (≈ 31.2 µg/mL) | – | – | – | – | – | – | – | – | – | –
11 | CCNc1cc(C)nc(N2CCN(C(=O)c3ccc(Cl)cc3)CC2)n1 | – | 2.4 | 89 | 37 | > 60 | > 120 | – | – | – | – | – | – | – | – | – | –
12 | CCCS(=O)(=O)N1CCN(c2nc(C)cc(NCC)n2)CC1 | – | 70 | – | – | – | > 120 | – | – | – | – | – | – | inactive | inactive | inactive | inactive
13 | CCNc1nc(C)cc(N2CCN(C(=O)c3ccc(OC)cc3)CC2)n1 | Non-Toxic | 1.4 | 136 | 97 | > 60 | > 120 | – | – | – | Non-Toxic | Non-Toxic | – | – | – | – | –
14 | CCNc1nc(C)cc(N2CCCC(NC(=O)c3cc(Cl)cc(Cl)c3)C2)n1 (stereo not given) | – | > 100 | 12 | < 0.12 | 44 | 22 (≈ 8.98 µg/mL) | – | – | – | – | – | – | – | – | – | –
15 | CCNc1ccnc(N2CCN(C(=O)c3ccc(Cl)cc3)CC2)n1 | – | 15 | 47 | 3.1 | > 60 | > 120 | – | – | – | – | – | – | – | – | – | –
16 | CCNc1nc(C)cc(N2CCN(C(=O)c3ccc(C(C)(C)C)cc3)CC2)n1 | – | 2.4 | 45 | 19 | > 60 | 120 (≈ 45.8 µg/mL) | – | – | – | – | – | – | – | – | – | –
17 | CNc1nc(C)cc(N2CCN(S(=O)(=O)c3ccc(F)cc3)CC2)n1 | – | 11 | 99 | 9.2 | > 60 | > 120 | – | – | – | – | – | – | – | – | – | –
